Data reported in patent US20040006236A1, “Diaminopropionic acid derivatives” (priority 1999, published 2004).
Like-named read-outs stand apart in the source and are kept apart here.

What was measured:
[1] = target: T1, LFA-1 binding to immobilized ICAM-1 (Homo sapiens, UniProt P05107+P20701); assay: LFA-1/ICAM-1 protein-protein assay (solid-phase ELISA); conditions: read-out: LFA-1/ICAM-1 Protein-Protein Assay IC50
T1 construct: made in house; host or cells: transfected 293 cells (LFA-1)
Summary of the method: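 Human 5dICAM-Ig (ICAM-1 extracellular domain–IgG Fc) coated on plates; membrane-bound LFA-1 from transfected 293 cells (280 ng/mL) added with compound in Mn2+-containing HEPES buffer pH 7.2, 2 h at 37° C. Bound LFA-1 detected via anti-β2 antibody and HRP/TMB at 450 nm; IC50s determined.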

[2] = system: T lymphocyte proliferation (C57BI/6 spleen cells with irradiated BALB/c spleen cells); assay: Mixed lymphocyte reaction (MLR), one-way; format: cell-based, mice; conditions: read-out: MLR IC50
Summary of the method: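 One-way murine MLR: C57BI/6 responder splenocytes proliferate against irradiated BALB/c stimulators while exposed to serially diluted antagonists in supplemented RPMI1640 for 3 days. Proliferation read as [3H]-thymidine uptake over a final 6 h pulse (0.5 μCi/well), scintillation counted.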

T1 sequence (P20701 26-1170): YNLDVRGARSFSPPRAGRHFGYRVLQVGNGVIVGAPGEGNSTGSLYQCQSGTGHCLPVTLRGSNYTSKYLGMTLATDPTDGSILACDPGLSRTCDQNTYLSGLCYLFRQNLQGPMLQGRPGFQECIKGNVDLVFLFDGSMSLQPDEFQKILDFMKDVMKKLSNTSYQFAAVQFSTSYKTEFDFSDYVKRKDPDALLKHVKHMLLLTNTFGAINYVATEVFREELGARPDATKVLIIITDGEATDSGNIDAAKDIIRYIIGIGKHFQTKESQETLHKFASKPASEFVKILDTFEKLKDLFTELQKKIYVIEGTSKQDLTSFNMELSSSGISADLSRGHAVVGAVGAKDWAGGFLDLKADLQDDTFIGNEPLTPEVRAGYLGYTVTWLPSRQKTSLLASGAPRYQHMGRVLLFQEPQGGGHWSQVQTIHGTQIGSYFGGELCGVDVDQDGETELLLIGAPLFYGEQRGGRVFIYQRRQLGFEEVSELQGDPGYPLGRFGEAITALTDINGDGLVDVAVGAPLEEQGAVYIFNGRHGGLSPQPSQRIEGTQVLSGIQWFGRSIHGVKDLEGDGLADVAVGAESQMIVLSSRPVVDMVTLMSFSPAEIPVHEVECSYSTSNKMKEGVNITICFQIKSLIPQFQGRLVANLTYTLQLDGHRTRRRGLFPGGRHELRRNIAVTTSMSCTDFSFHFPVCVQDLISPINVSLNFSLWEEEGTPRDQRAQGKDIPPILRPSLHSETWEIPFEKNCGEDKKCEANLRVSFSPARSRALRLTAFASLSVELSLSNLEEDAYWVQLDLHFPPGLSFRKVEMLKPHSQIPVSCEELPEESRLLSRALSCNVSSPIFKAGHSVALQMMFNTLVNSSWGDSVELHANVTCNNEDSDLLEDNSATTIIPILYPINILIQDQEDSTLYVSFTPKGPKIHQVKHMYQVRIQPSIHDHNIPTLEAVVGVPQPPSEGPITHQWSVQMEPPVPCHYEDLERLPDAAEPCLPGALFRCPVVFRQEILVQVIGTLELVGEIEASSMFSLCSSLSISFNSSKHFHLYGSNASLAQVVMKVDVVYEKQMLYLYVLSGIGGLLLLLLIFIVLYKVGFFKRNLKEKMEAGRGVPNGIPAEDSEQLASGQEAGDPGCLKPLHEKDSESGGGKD
T1 sequence (P05107 23-769): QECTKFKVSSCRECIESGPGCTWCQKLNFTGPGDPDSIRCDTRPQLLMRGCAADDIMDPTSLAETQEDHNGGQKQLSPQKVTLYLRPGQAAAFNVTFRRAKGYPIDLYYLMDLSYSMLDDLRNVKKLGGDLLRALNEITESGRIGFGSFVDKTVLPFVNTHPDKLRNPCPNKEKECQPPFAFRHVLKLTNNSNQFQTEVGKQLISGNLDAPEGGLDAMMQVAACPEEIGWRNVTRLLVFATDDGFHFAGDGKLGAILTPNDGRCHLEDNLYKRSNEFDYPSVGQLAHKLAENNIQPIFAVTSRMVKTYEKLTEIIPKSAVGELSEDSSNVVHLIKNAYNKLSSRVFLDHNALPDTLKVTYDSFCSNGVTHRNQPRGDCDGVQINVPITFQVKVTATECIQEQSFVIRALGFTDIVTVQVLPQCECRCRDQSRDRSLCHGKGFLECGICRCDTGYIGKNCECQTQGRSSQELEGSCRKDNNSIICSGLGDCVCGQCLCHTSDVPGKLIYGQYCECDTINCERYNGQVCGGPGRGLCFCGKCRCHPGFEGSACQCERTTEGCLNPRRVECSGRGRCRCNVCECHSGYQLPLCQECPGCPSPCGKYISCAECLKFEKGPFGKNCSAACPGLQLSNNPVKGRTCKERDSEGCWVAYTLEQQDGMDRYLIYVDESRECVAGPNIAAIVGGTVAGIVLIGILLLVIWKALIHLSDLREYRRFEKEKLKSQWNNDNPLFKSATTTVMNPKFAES

SMILES	IC50 [1] [nM]	IC50 ([2]; Mus musculus, T-lymphocyte) [nM]	IC50 [2] [nM]
O=C1CC[C@@H](C(=O)NC[C@H](NC(=O)c2ccc(C(=O)NCc3cccc(O)c3)cc2Cl)C(=O)O)O1 [Example 96]	3.1	1300	–
O=C(NCc1cccc(O)c1)c1ccc(C(=O)N[C@@H](CNC(=O)C2(c3ccccc3)CC2)C(=O)O)c(Cl)c1 [Example 99]	7.5	2000	–
O=C(NCc1cccc(O)c1)c1ccc(C(=O)N[C@@H](CNC(=O)C2CCC2)C(=O)O)c(Cl)c1 [Example 100]	2.9	705	–
COCCC1(C(=O)NC[C@H](NC(=O)c2ccc(C(=O)NCc3cccc(O)c3)cc2Cl)C(=O)O)CCCC1 [Example 102]	2.2	400	–
O=C(NCc1cccc(O)c1)c1ccc(C(=O)N[C@@H](CNC(=O)C2CCCCC2)C(=O)O)c(Cl)c1 [Example 104]	3.5	775	–
CC1(C(=O)NC[C@H](NC(=O)c2ccc(C(=O)NCc3cccc(O)c3)cc2Cl)C(=O)O)CCCCC1 [Example 105]	1.9	280	–
O=C(NCc1cccc(O)c1)c1ccc(C(=O)N[C@@H](CNC(=O)[C@H](CC2CCCCC2)n2cccc2)C(=O)O)c(Cl)c1 [Example 110]	3.7	10000	–
Cc1noc(C)c1CCC(=O)NC[C@H](NC(=O)c1ccc(C(=O)NCc2cccc(O)c2)cc1Cl)C(=O)O [Example 111]	2	500	–
O=C(/C=C/c1cccnc1)NC[C@H](NC(=O)c1ccc(C(=O)NCc2cccc(O)c2)cc1Cl)C(=O)O [Example 115]	2.2	1350	–
CC(=O)Oc1ccccc1C(=O)NC[C@H](NC(=O)c1ccc(C(=O)NCc2cccc(O)c2)cc1Cl)C(=O)O [Example 117]	3.6	290	–
Nc1cccc(C(=O)NC[C@H](NC(=O)c2ccc(C(=O)NCc3cccc(O)c3)cc2Cl)C(=O)O)c1 [Example 118]	1.9	–	145
NS(=O)(=O)c1ccc(C(=O)NC[C@H](NC(=O)c2ccc(C(=O)NCc3cccc(O)c3)cc2Cl)C(=O)O)cc1 [Example 119]	3	420	–
O=C(NCc1cccc(O)c1)c1ccc(C(=O)N[C@@H](CNC(=O)c2ccccc2Br)C(=O)O)c(Cl)c1 [Example 120]	4.9	890	–
Cc1noc(C)c1C(=O)NC[C@H](NC(=O)c1ccc(C(=O)NCc2cccc(O)c2)cc1Cl)C(=O)O [Example 153]	7.7	–	–

More lines, in order of falling IC50 [1], values ahead:

IC50 [1] [nM]	SMILES	IC50 ([2]; Mus musculus, T-lymphocyte) [nM]	IC50 [2] [nM]
1.9	O=C(NCc1cccc(O)c1)c1ccc(C(=O)N[C@@H](CNC(=O)C2CC2)C(=O)O)c(Cl)c1 [Example 97]	1550	–
1.9	O=C(NCc1cccc(O)c1)c1ccc(C(=O)N[C@@H](CNC(=O)C2CCCC2)C(=O)O)c(Cl)c1 [Example 101]	565	–
1.8	COc1ccc(/C=C/C(=O)NC[C@H](NC(=O)c2ccc(C(=O)NCc3cccc(O)c3)cc2Cl)C(=O)O)cc1 [Example 114]	1650	–
1.8	O=C(/C=C/c1cccs1)NC[C@H](NC(=O)c1ccc(C(=O)NCc2cccc(O)c2)cc1Cl)C(=O)O [Example 116]	1300	–
1.7	C/C=C/C(=O)NC[C@H](NC(=O)c1ccc(C(=O)NCc2cccc(O)c2)cc1Cl)C(=O)O [Example 113]	350	–
1.6	O=C(NCc1cccc(O)c1)c1ccc(C(=O)N[C@@H](CNC(=O)C2(c3ccccc3)CCCC2)C(=O)O)c(Cl)c1 [Example 103]	520	–
1.5	O=C(CCN1CCCCC1)NC[C@H](NC(=O)c1ccc(C(=O)NCc2cccc(O)c2)cc1Cl)C(=O)O [Example 112]	375	–
1.2	COc1cccc(C(=O)NC[C@H](NC(=O)c2ccc(C(=O)NCc3cccc(O)c3)cc2Cl)C(=O)O)c1 [Example 76, N-[2-chloro-4-[[[(3-hydroxyphenyl)methyl]amino]-carbonyl]benzoyl]-3-(3-methoxybenzoylamino)-L-alanine]	310	–
